According to ChEMBL document CHEMBL3739316, “Novel orally active inhibitors of β-1,3-glucan synthesis derived from enfumafungin” (Bioorg Med Chem Lett, 2015):
Converted amounts (≈) assume the structure as drawn.

Experiments:
[1] = molecular target: T1, Beta-1,3-glucan synthase (Candida albicans, UniProt O13383); assay: Displacement of UDP-[3H]glucose from beta-1,3-glucan synthase in Candida albicans MY1055 microsomal membranes incubated for 2 hrs
T1 sequence (O13383 whole entry): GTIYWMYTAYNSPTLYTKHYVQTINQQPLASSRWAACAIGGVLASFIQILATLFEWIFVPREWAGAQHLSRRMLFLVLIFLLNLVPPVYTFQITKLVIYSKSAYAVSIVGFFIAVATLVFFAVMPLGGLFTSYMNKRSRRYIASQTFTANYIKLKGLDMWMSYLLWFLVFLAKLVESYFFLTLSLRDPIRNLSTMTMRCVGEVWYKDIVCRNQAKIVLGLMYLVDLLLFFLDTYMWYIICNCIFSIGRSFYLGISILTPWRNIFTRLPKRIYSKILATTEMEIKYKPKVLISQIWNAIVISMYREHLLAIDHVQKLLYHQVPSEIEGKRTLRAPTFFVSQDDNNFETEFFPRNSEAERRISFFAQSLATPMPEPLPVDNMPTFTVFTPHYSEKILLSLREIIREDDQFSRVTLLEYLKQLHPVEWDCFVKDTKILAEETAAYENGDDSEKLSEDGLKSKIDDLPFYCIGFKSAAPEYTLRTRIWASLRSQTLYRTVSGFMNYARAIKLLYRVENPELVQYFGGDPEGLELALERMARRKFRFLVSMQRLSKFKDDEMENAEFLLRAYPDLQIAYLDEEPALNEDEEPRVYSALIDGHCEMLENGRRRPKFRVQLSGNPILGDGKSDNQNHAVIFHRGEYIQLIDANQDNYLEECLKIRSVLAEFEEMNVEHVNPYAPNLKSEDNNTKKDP

[2] = tested on: Candida albicans; assay: Antifungal activity against Candida albicans MY1055 after 24 hrs by liquid microdilution assay; assay type: functional; conditions: MY1055, 24 h
[3] = tested on: Aspergillus fumigatus; assay: Antifungal activity against Aspergillus fumigatus MF5668 after 24 hrs by liquid microdilution assay; assay type: functional; conditions: MF5668, 24 h, read-out: MEC
[4] = tested on: Candida albicans; assay: Antifungal activity against Candida albicans MY1055 after 24 hrs by liquid microdilution assay in presence of human serum; assay type: functional; conditions: MY1055, 24 h
[5] = tested on: Mus musculus; assay: Dose normalized AUC in orally dosed mouse; assay type: ADME, organism-based; conditions: in vivo, po
[6] = Oral bioavailability in mouse; assay type: ADME, organism-based; conditions: in vivo
[7] = tested on: Candida albicans; assay: Antifungal activity against Candida albicans MY1055 in DBA/2 mouse candidiasis model assessed as change in CFU per gram of kidney at 25 mg/kg, po bid after 4 days by Target Organ Kidney Assay relative to sham treated control; assay type: functional
[8] = tested on: Candida albicans; assay: Antifungal activity against Candida albicans MY1055 in DBA/2 mouse candidiasis model assessed as change in CFU per gram of kidney at 12.5 mg/kg, po bid after 4 days by Target Organ Kidney Assay relative to sham treated control; assay type: functional
[9] = tested on: Candida albicans; assay: Antifungal activity against Candida albicans MY1055 in DBA/2 mouse candidiasis model assessed as change in CFU per gram of kidney at 6.25 mg/kg, po bid after 4 days by Target Organ Kidney Assay relative to sham treated control; assay type: functional
[10] = tested on: Candida albicans; assay: Antifungal activity against Candida albicans MY1055 in DBA/2 mouse candidiasis model assessed as change in CFU per gram of kidney at 12.5 mg/kg, ip bid after 7 days by Target Organ Kidney Assay relative to sham treated control; assay type: functional
[11] = tested on: Candida albicans; assay: Antifungal activity against Candida albicans MY1055 in DBA/2 mouse candidiasis model assessed as change in CFU per gram of kidney at 25 mg/kg, po bid after 7 days by Target Organ Kidney Assay relative to sham treated control; assay type: functional
[12] = tested on: Candida albicans; assay: Antifungal activity against Candida albicans MY1055 in DBA/2 mouse candidiasis model assessed as change in CFU per gram of kidney at 12.5 mg/kg, po bid after 7 days by Target Organ Kidney Assay relative to sham treated control; assay type: functional
[13] = tested on: Candida albicans; assay: Antifungal activity against Candida albicans MY1055 in DBA/2 mouse candidiasis model assessed as change in CFU per gram of kidney at 6.25 mg/kg, po bid after 7 days by Target Organ Kidney Assay relative to sham treated control; assay type: functional
[14] = tested on: Candida albicans; assay: Antifungal activity against Candida albicans MY1055 in DBA/2N mouse candidiasis model assessed as mouse survival at 12.5 mg/kg, ip bid after 7 days by Target Organ Kidney Assay relative to sham treated control; assay type: functional; conditions: 168 h
[15] = tested on: Candida albicans; assay: Antifungal activity against Candida albicans MY1055 in DBA/2N mouse candidiasis model assessed as mouse survival at 25 mg/kg, po bid after 7 days by Target Organ Kidney Assay relative to sham treated control; assay type: functional; conditions: 168 h
[16] = tested on: Candida albicans; assay: Antifungal activity against Candida albicans MY1055 in DBA/2N mouse candidiasis model assessed as mouse survival at 12.5 mg/kg, po bid after 7 days by Target Organ Kidney Assay relative to sham treated control; assay type: functional; conditions: 168 h
[17] = tested on: Candida albicans; assay: Antifungal activity against Candida albicans MY1055 in DBA/2N mouse candidiasis model assessed as mouse survival at 6.25 mg/kg, po bid after 4 days by Target Organ Kidney Assay relative to sham treated control; assay type: functional; conditions: 96 h
[18] = tested on: Candida albicans; assay: Antifungal activity against Candida albicans MY1055 in DBA/2N mouse candidiasis model assessed as reduction of fungal burden after 7 days; assay type: functional; conditions: MY1055, 168 h
[19] = AUC (0 to 24 hrs) in DBA/2J mouse at 10 mg/kg, po; assay type: ADME, organism-based; set-up: dose 10 mg/kg, time < 24 hr, route oral; conditions: in vivo
[20] = tested on: Mus musculus; assay: AUC (0 to 24 hrs) in DBA/2J mouse assessed as metabolite 13e at 10 mg/kg, po; assay type: ADME, organism-based; set-up: dose 10 mg/kg, time < 24 hr, route oral; conditions: in vivo
[21] = tested on: Mus musculus; assay: AUC (0 to 24 hrs) in DBA/2J mouse assessed as metabolite 13c at 10 mg/kg, po; assay type: ADME, organism-based; set-up: dose 10 mg/kg, time < 24 hr, route oral; conditions: in vivo
[22] = tested on: Mus musculus; assay: AUC (0 to 24 hrs) in DBA/2J mouse assessed as total metabolites at 10 mg/kg, po; assay type: ADME, organism-based; conditions: in vivo
[23] = tested on: Mus musculus; assay: Drug level in DBA/2J mouse treated with 13f at 10 mg/kg, po; assay type: ADME, organism-based; conditions: in vivo
[24] = tested on: Candida albicans; assay: Antifungal activity against Candida albicans MY1055 in DBA/2 mouse candidiasis model assessed as change in CFU per gram of kidney at 25 mg/kg, ip bid after 4 days by Target Organ Kidney Assay relative to sham treated control; assay type: functional
[25] = tested on: Candida albicans; assay: Antifungal activity against Candida albicans MY1055 in DBA/2 mouse candidiasis model assessed as change in CFU per gram of kidney at 12.5 mg/kg, ip bid after 4 days by Target Organ Kidney Assay relative to sham treated control; assay type: functional
[26] = tested on: Candida albicans; assay: Antifungal activity against Candida albicans MY1055 in DBA/2 mouse candidiasis model assessed as change in CFU per gram of kidney at 6.25 mg/kg, ip bid after 4 days by Target Organ Kidney Assay relative to sham treated control; assay type: functional
[27] = tested on: Rattus norvegicus; assay: Dose normalized AUC in orally dosed rat; assay type: ADME, organism-based; conditions: in vivo, po
[28] = Oral bioavailability in rat; assay type: ADME, organism-based; conditions: in vivo

Compound | IC50 [1] [nM] | MIC [2] [µg/mL] | minimal effective concentration [3] [µg/mL] | MIC [4] [µg/mL] | AUC/dose [5] [µM·kg·h/mg] | bioavailability [6] [%] | Activity [7] [deltalog10CFU] | Activity [8] [deltalog10CFU] | Activity [9] [deltalog10CFU] | Activity [10] [deltalog10CFU] | Activity [11] [deltalog10CFU] | Activity [12] [deltalog10CFU] | Activity [13] [deltalog10CFU] | survival at 12.5 mg/kg [14] [%] | survival at 25 mg/kg [15] [%] | survival at 12.5 mg/kg [16] [%] | survival at 6.25 mg/kg [17] [%] | ED99 [18] [mg/kg] | AUC(0-t) at 24 h [19] [µM·h] | AUC [21] [µM·h] | further results
CC(C)[C@@H](C)[C@@]1(C)CC[C@]2(C)[C@H]3CC[C@H]4C5(C)COC[C@@]4(C[C@@H](n4nnc(N)n4)[C@@H]5OC[C@@](C)(C(C)C)N(C)C)C3=CC[C@@]2(C)[C@@H]1C(=O)O | 13.2 | 0.25 (≈ 0.366 µM) | < 0.03 | 8 | 0.15 | 17 | -2.6 | -2.5 | -0.7 | -3.36 | -2.75 | -2.38 | -1.19 | 100 | 100 | 100 | 40 | 9 | 1.27 | 0.11 | AUC [20]: 1.23 µM·h; Drug uptake [22]: 51.3%
CN[C@@](C)(CO[C@H]1[C@H](n2nnc(N)n2)C[C@@]23COCC1(C)[C@@H]2CC[C@H]1C3=CC[C@@]2(C)[C@H](C(=O)O)[C@@](C)([C@H](C)C(C)C)CC[C@]12C)C(C)C | 2.99 | < 0.03 | < 0.03 | 4 | 0.12 | 9 | -2.5 | -1.9 | -1.5 | -3.89 | -2.54 | 0.89 | -0.61 | 100 | 100 | 20 | 20 | 19 | 1.06 | 0.005 | Drug uptake [22]: 0.5%; Drug metabolism [23]: metabolite_detected
CC(=O)O[C@@H]1C[C@@]23COCC(C)([C@H]1OCCN)[C@@H]2CC[C@H]1C3=CC[C@@]2(C)[C@H](C(=O)O)[C@@](C)([C@H](C)C(C)C)CC[C@]12C | 81.9 | 1 (≈ 1.74 µM) | < 0.03 | 32 | 0.54 | 24 |  |  |  |  |  |  |  |  |  |  |  |  |  |  | Activity [24]: -0.7 deltalog10CFU; Activity [25]: -0.4 deltalog10CFU; Activity [26]: -0.3 deltalog10CFU
CCN[C@@](C)(CO[C@H]1[C@H](n2nnc(N)n2)C[C@@]23COCC1(C)[C@@H]2CC[C@H]1C3=CC[C@@]2(C)[C@H](C(=O)O)[C@@](C)([C@H](C)C(C)C)CC[C@]12C)C(C)C | 7.32 | 0.06 (≈ 0.0878 µM) | < 0.03 | 8 | 0.44 | 11 | -2.8 | -2.6 | -0.7 | -3.26 | -2.8 | -2.54 | 0.72 | 100 | 100 | 60 | 20 | 13 | 4.22 | 0.29 | Drug uptake [22]: 6.4%
CCCN[C@@](C)(CO[C@H]1[C@H](n2nnc(N)n2)C[C@@]23COCC1(C)[C@@H]2CC[C@H]1C3=CC[C@@]2(C)[C@H](C(=O)O)[C@@](C)([C@H](C)C(C)C)CC[C@]12C)C(C)C | 11.5 | 0.06 (≈ 0.0861 µM) | < 0.03 | 16 | 0.35 | 25 | -3 | -2.4 | -1.1 | -2.98 | -2.9 | -1.53 | -2.04 | 100 | 100 | 100 | 40 | 10 | 3.13 | 0.36 | Drug uptake [22]: 10.3%
CC(=O)O[C@@H]1C[C@@]23COCC(C)([C@H]1O[C@@H]1O[C@H](CO)[C@@H](O)[C@H](O)[C@H]1O)[C@@H]2CC[C@H]1C3=CC[C@@]2(C)[C@H](C(=O)O)[C@@](C)([C@H](C)C(C)C)CC[C@]12C | 86.6 | 0.25 (≈ 0.361 µM) | < 0.03 | 8 |  |  |  |  |  |  |  |  |  |  |  |  |  |  |  |  | AUC/dose [27]: 0.01 µM·kg·h/mg; bioavailability [28]: 1%
CC(C)[C@@H](C)[C@@]1(C)CC[C@]2(C)[C@H]3CC[C@H]4C5(C)COC[C@@]4(C[C@@H](n4nnc(N)n4)[C@@H]5OC[C@](C)(N)C(C)C)C3=CC[C@@]2(C)[C@@H]1C(=O)O | 3.05 | < 0.03 | < 0.03 | 2 | 0.14 | 14 | -2.2 | -0.3 | -0.1 |  |  |  |  |  |  |  |  |  |  |  | Drug metabolism [23]: metabolite_detected
